# Laboratory results as given in the supplement of paper PMC11208160.
# Assay: recombinant UMI read abundance after kanamycin selection (control-corrected) (log10(CPM+1)); higher = more efficient recombination; extreme values may be limits of the assay; sequences stand for … in AGTGCAGAGAAAATCGGCCAGTTTTCTCTGCCTGCAGTCCGCATGCCGTGGGACCCCTTGGGTTCTAACCTGTTGCCTAGATTTATGCAGCGGACTGCCTTTCTCCCAAAGTGATAAACCGG…AGGTTGGTTTCACT; site = the 11-nt donor
# Outline: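 Under IPTG (0.07 mM) plus kanamycin, or without selection, Escherichia coli carrying a UMI-tagged donor and donor-binding-loop pair library and a target plasmid for the IS621 bridge recombinase were plated in two replicates. Recombinant UMIs were PCR-amplified across the donor–target junction and sequenced. Counts were converted to CPM, averaged over replicates, scaled by control-derived factors and reported as log10(CPM+1).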
# 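Further: IS621 bridge recombinase in Escherichia coli cells against a fixed T5 target plasmid.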
row,Sequence,recombinant UMI read abundance (log10)
1,GGAGTGGCATGGACCGGTTTTCCCGGTAATCCGTATTTGGT (site GGAGTAGCTAC),0.606
2,GGAGTGGCATGGACCGGTTTTCCCGGTAATCCGTATTTGGT (site GGAGTCGCTAC),0.014
3,GGAGTGGCATGGACCGGTTTTCCCGGTAATCCGTATTTGGT (site GGAGTGACTAC),0.976
4,GGAGTGGCATGGACCGGTTTTCCCGGTAATCCGTATTTGGT (site GGAGTGCCTAC),0.377
5,GGAGTGGCATGGACCGGTTTTCCCGGTAATCCGTATTTGGT (site GGAGTGGCTAA),0.0703
6,GGAGTGGCATGGACCGGTTTTCCCGGTAATCCGTATTTGGT (site GGAGTGGCTAC),0.575
7,GGAGTGGCATGGACCGGTTTTCCCGGTAATCCGTATTTGGT (site GGAGTGGCTAG),1.26
8,GGAGTGGCATGGACCGGTTTTCCCGGTAATCCGTATTTGGT (site GGAGTGGCTAT),0.592
9,GGAGTGGCATGGACCGGTTTTCCCGGTAATCCGTATTTGGT (site GGAGTGGCTCC),0.0114
10,GGAGTGGCATGGACCGGTTTTCCCGGTAATCCGTATTTGGT (site GGAGTGGCTGC),0.537
11,GGAGTGGCATGGACCGGTTTTCCCGGTAATCCGTATTTGGT (site GGAGTGGCTTC),0.0104
12,GGAGTGGCATGGACCGGTTTTCCCGGTAATCCGTATTTGGT (site GGAGTGTCTAC),1.1
13,GGAGTGGCATGGACCGGTTTTCCCGGTAATCCGTATTTGGT (site GGAGTTGCTAC),0
14,GGAGTGGCATGGACCGGTTTTCCCGGTAATCCGTATTTGGT (site GGATTGGCTAC),0.458
15,GGAGTGGCATGGACCGGTTTTCCCGGTAATCCGTATTTGGT (site GGCGTGGCTAC),0.0051
16,GGAGTGGCATGGACCGGTTTTCCCGGTAATCCGTATTTGGT (site GGGGTGGCTAC),0.0193
17,GGAGTGGCATGGACCGGTTTTCCCGGTAATCCGTATTTGGT (site GGTGTGGCTAC),0.564
18,GGAGTGGCATGGACCGGTTTTCCCGGTAATCCGTATTTGGT (site GTAGTGGCTAC),0.294
19,GGAGTGGCATGGACCGGTTTTCCCGGTAATCCGTATTTGGT (site TGAGTGGCTAC),0.32

row,Sequence,recombinant UMI read abundance (log10)
1,GGATCATCATGGACCGGTTTTCCCGGTAATCCGTATTTGAT (site CGATCATCTAG),0
2,GGATCATCATGGACCGGTTTTCCCGGTAATCCGTATTTGAT (site GGATCATCTAT),0.00412
3,GGATCATCATGGACCGGTTTTCCCGGTAATCCGTATTTGCT (site AGATCATCTAG),0
4,GGATCATCATGGACCGGTTTTCCCGGTAATCCGTATTTGCT (site CGATCATCTAG),0.511
5,GGATCATCATGGACCGGTTTTCCCGGTAATCCGTATTTGCT (site GGATCATCTAG),1.59
6,GGATCATCATGGACCGGTTTTCCCGGTAATCCGTATTTGCT (site TGATCATCTAG),0.91
7,GGATCCCCATGGACCGGTTTTCCCGGTAATCCGTATTTGCT (site GGATCCCCTAG),0.0066
8,GGATCGACATGGACCGGTTTTCCCGGTAATCCGTATTTGTT (site AGATCGACTAA),0.0171
9,GGATCGACATGGACCGGTTTTCCCGGTAATCCGTATTTGTT (site CGATCGACTAA),0.00751
10,GGATCGACATGGACCGGTTTTCCCGGTAATCCGTATTTGTT (site GGATCGACTAA),0.7
11,GGATCGACATGGACCGGTTTTCCCGGTAATCCGTATTTGTT (site TGATCGACTAA),0.00972
12,GGATCGGCATGGACCGGTTTTCCCGGTAATCCGTATTTGAC (site GGATCGGCTGT),1.87
13,GGATGATCATGGACCGGTTTTCCCGGTAATCCGTATTTGCT (site CGATCATCTAG),0
14,GGATGATCATGGACCGGTTTTCCCGGTAATCCGTATTTGCT (site GGATGATCTAG),2.36
15,GGATTATCATGGACCGGTTTTCCCGGTAATCCGTATTTGAT (site GGATTATCTAT),1.82
16,GGATTGACATGGACCGGTTTTCCCGGTAATCCGTATTTGCC (site GGATAGACTGG),1.42
17,GGATTGACATGGACCGGTTTTCCCGGTAATCCGTATTTGCC (site GGATCGACTGG),1.06
18,GGATTGACATGGACCGGTTTTCCCGGTAATCCGTATTTGCC (site GGATGGACTGG),0
19,GGATTGACATGGACCGGTTTTCCCGGTAATCCGTATTTGCC (site GGATTGACTGG),1.98

row,Sequence,recombinant UMI read abundance (log10)
1,GGCAAACCATGGACCGGTTTTCCCGGTAATCCGTATTTGAA (site GGCAAACCTTT),0
2,GGCAAACCATGGACCGGTTTTCCCGGTAATCCGTATTTGAA (site GGCAACCCTTT),0
3,GGCAAACCATGGACCGGTTTTCCCGGTAATCCGTATTTGAA (site GGCAAGCCTTT),0.00636
4,GGCAAACCATGGACCGGTTTTCCCGGTAATCCGTATTTGAA (site GGCAATCCTTT),0
5,GGCAACCCATGGACCGGTTTTCCCGGTAATCCGTATTTGGA (site GGCAACCCTTC),0.0138
6,GGCAATCCATGGACCGGTTTTCCCGGTAATCCGTATTTGAC (site GGCAATCCTAT),0.00921
7,GGCAATCCATGGACCGGTTTTCCCGGTAATCCGTATTTGAC (site GGCAATCCTCT),0.00258
8,GGCAATCCATGGACCGGTTTTCCCGGTAATCCGTATTTGAC (site GGCAATCCTGT),0.665
9,GGCAATCCATGGACCGGTTTTCCCGGTAATCCGTATTTGAC (site GGCAATCCTTT),0
10,GGCAATCCATGGACCGGTTTTCCCGGTAATCCGTATTTGTA (site GGCAATCCTTA),0.264
11,GGCAATCCATGGACCGGTTTTCCCGGTAATCCGTATTTGTA (site GGCAATCCTTC),0.00948
12,GGCAATCCATGGACCGGTTTTCCCGGTAATCCGTATTTGTA (site GGCAATCCTTG),0
13,GGCAATCCATGGACCGGTTTTCCCGGTAATCCGTATTTGTA (site GGCAATCCTTT),0
14,GGCACAGCATGGACCGGTTTTCCCGGTAATCCGTATTTGAA (site GGCACAGCTTT),1.87
15,GGCAGAGCATGGACCGGTTTTCCCGGTAATCCGTATTTGCC (site GGCAGAGCTGG),0
16,GGCCAACCATGGACCGGTTTTCCCGGTAATCCGTATTTGTT (site GGCCAACCTAA),0.00804
17,GGCCAACCATGGACCGGTTTTCCCGGTAATCCGTATTTGTT (site GGCCACCCTAA),0.0125
18,GGCCAACCATGGACCGGTTTTCCCGGTAATCCGTATTTGTT (site GGCCAGCCTAA),0.0207
19,GGCCAACCATGGACCGGTTTTCCCGGTAATCCGTATTTGTT (site GGCCATCCTAA),0.00632
